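Compound exposure: 48 hours, 5 concentrations, 96-well plates. Abbreviation: GI50, concentration required for 50% inhibition of growth.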 Calls of active or inactive are those of the source. Rule as the data show it: active = GI50 up to about 1.1 µM and inactive = higher.

Common to all, as to assay: NCI anticancer screen, dose series, 48 h
Assay [1] has as its system CCRF-CEM.
In assay [2] the test system is DMS-273.
The test system of assay [3] is HOP-18.
The subject of assay [4] is K562.
For assay [5], the system named is KM-20L2.
Assay [6] relates to LOX IMVI.
In assay [7] the test system is NCI-H23.
Assay [8] relates to OVCAR-8.
Assay [9] relates to SF-268.
The subject of assay [10] is SF-539.
Assay [11] deals with SK-MEL-28.
In assay [12] the test system is SK-MEL-2.
Assay [13] has as its system SK-OV-3.
Assay [14] concerns SW-620.
Assay [15] concerns U-251.
The test system of assay [16] is XF498.
In assay [17] the test system is DMS-114.
The subject of assay [18] is M19-MEL.
Assay [19] relates to SNB-19.

`CC1Oc2c(c(O)cc3oc(=O)cc(-c4ccccc4)c23)C(=O)C1C` (centres undefined): the GI50 in [1], in assay [2], in assay [3], in assay [4], in assay [5] and in assay [6] was > 100 µM (inactive) each time. The GI50 in assay [7], in assay [8], in assay [9], in [10], in assay [11] and in assay [12] was > 100 µM (inactive) each time. In addition, the GI50 in assay [13], in assay [14], in [15] and in assay [16] was > 100 µM (inactive) each time.
On to `O=P1(c2ccccc2)Nc2ccccc2SSc2ccccc2N1`, for which the GI50 is 12.1 µM (inactive) in assay [1]; 19.5 µM (inactive) in assay [17]; 17.4 µM (inactive) in assay [2]; 19.2 µM (inactive) in assay [3]; 18.2 µM (inactive) in [4]; 17.9 µM (inactive) in assay [5]. In addition, the GI50 in [6] is 16.2 µM (inactive); in [18] it was 18.7 µM (inactive); in [7], 16.6 µM (inactive); in [8], 18.2 µM (inactive); in [9], 17.5 µM (inactive); in [10] it was 19.9 µM (inactive). For the same compound, the GI50 in assay [11] was 18.7 µM (inactive); in assay [12] it was 16.7 µM (inactive); in assay [13], 25.5 µM (inactive); in [19], 16.3 µM (inactive); in assay [14], 16.7 µM (inactive); in [15] it was 16.7 µM (inactive). In addition, in assay [16], the GI50 is 17.8 µM (inactive).
On to `O=C(OCc1ccccc1)C(Cc1ccccc1)N(Cc1ccccc1)Cc1ccccc1` (centres undefined), for which the GI50 was 25.8 µM (inactive) in assay [1]; 7.5 µM (inactive) in assay [17]; 44.6 µM (inactive) in assay [2]; 14.4 µM (inactive) in assay [4]; > 100 µM (inactive) in [5]; 76.7 µM (inactive) in assay [18]. For the same compound, the GI50 in assay [7], in [8], in assay [9], in [10], in [11] and in [12] was > 100 µM (inactive) throughout. Besides, the GI50 in [13] was > 100 µM (inactive); in assay [19], > 100 µM (inactive); in assay [14] it was > 100 µM (inactive); in assay [15], 27.7 µM (inactive); in assay [16] it was 21.8 µM (inactive).
Turning to `CN(C)CCNC(=O)c1cc(Cl)cc2ccc(-c3ccccc3)nc12`, the GI50 in assay [1] was 1.49 µM (inactive); in assay [17], 3.46 µM (inactive); in assay [2] it was 2.3 µM (inactive); in assay [3], 3.52 µM (inactive); in [4], 1.78 µM (inactive); in [5] it was 2.65 µM (inactive). In addition, the GI50 was 2.32 µM (inactive) in assay [6]; 3.15 µM (inactive) in assay [18]; 3.96 µM (inactive) in assay [7]; 2.92 µM (inactive) in assay [8]; 4.57 µM (inactive) in [9]; 3.09 µM (inactive) in assay [10]. In addition, the GI50 was 4.83 µM (inactive) in assay [11]; 4.85 µM (inactive) in [12]; 3.13 µM (inactive) in [13]; 5.04 µM (inactive) in assay [19]; 2.32 µM (inactive) in assay [14]; 4.32 µM (inactive) in assay [15]. Besides, the GI50 in assay [16] was 2.18 µM (inactive).
`C=CCC(O[Si](C)(C)C(C)(C)C)c1cc(O[Si](C)(C)C(C)(C)C)ccc1OC` (centres undefined): the GI50 in [1] is > 100 µM (inactive); in assay [17], > 59.7 µM (inactive); in [2], > 95.1 µM (inactive); in assay [3], > 100 µM (inactive); in [4] it was > 100 µM (inactive); in assay [5] it was > 100 µM (inactive). Besides, the GI50 is > 94.2 µM (inactive) in assay [6]; > 100 µM (inactive) in assay [7]; > 81.3 µM (inactive) in assay [8]; > 85.9 µM (inactive) in assay [9]; 99.3 µM (inactive) in assay [10]; > 81.8 µM (inactive) in assay [11]. For the same compound, the GI50 in assay [12] is > 75.5 µM (inactive); in [13], > 62.4 µM (inactive); in assay [19] it was > 62.2 µM (inactive); in assay [14], > 100 µM (inactive); in assay [15], > 71.6 µM (inactive); in assay [16] it was > 58.5 µM (inactive).
As for `CC(=O)OC1CC2(O)C(CCC3(C)C(c4ccc(=O)oc4)CCC32O)C2(C)C1=CC(O)C1OC12` (centres undefined), the GI50 is 0.0267 µM (active) in [1]; 0.025 µM (active) in assay [17]; 0.04 µM (active) in assay [2]; 0.048 µM (active) in assay [3]; 0.0467 µM (active) in assay [4]; 0.067 µM (active) in assay [5]. Besides, the GI50 in [6] is 0.0687 µM (active); in assay [18], 0.0502 µM (active); in assay [7], 0.0275 µM (active); in [8] it was 0.0349 µM (active); in assay [9], 0.0295 µM (active); in [10], 0.0375 µM (active). The GI50 in assay [11] was 0.0621 µM (active); in [12], 0.0724 µM (active); in assay [13] it was 0.0843 µM (active); in assay [19], 0.118 µM (active); in [14], 0.0387 µM (active); in assay [15] it was 0.0762 µM (active). Besides, the GI50 in assay [16] is 0.0693 µM (active).
Regarding `NC1=C(C(=O)O)C(=O)C(Nc2c(O)cccc2C(=O)O)=CC1=O`, the GI50 in [17], in assay [2], in assay [3], in assay [4], in assay [5] and in assay [6] was > 100 µM (inactive) each time. The GI50 in assay [18] was 18.7 µM (inactive); in assay [7], > 100 µM (inactive); in assay [8], > 100 µM (inactive); in assay [9], 1 µM (active); in assay [10] it was > 100 µM (inactive); in assay [11], 0.942 µM (active). The GI50 in [12] is 59.3 µM (inactive); in [13] it was > 100 µM (inactive); in assay [19], > 100 µM (inactive); in assay [14], > 100 µM (inactive); in assay [15], > 100 µM (inactive); in [16] it was > 100 µM (inactive).
Regarding `Cc1cc(C)nc(NS(=O)(=O)c2ccc(Nc3c4ccccc4nc4c(C(=O)N5CCN(CCOS(C)(=O)=O)CC5)cccc34)cc2)n1`, the GI50 in assay [1] is 72.9 µM (inactive); in [17], 99.1 µM (inactive); in [4], 53.2 µM (inactive); in assay [5], > 100 µM (inactive); in assay [18], > 100 µM (inactive); in assay [7], > 100 µM (inactive). Moreover, the GI50 in [8], in [9], in assay [10], in assay [11], in assay [12] and in assay [13] was > 100 µM (inactive) each time. Also, the GI50 was > 100 µM (inactive) in [19], 67 µM (inactive) in [15] and > 100 µM (inactive) in assay [16].
For `COc1cccc(C2C(C(=O)O)=C(CO)Oc3cc4c(cc32)OCO4)c1OC` (centres undefined), the GI50 in assay [1], in assay [3], in assay [4], in [5], in [6] and in assay [18] was > 100 µM (inactive) each time. Besides, the GI50 in assay [7], in assay [8], in [9], in [10], in assay [11] and in [12] was > 100 µM (inactive) in each case. For the same compound, the GI50 in [13] was > 100 µM (inactive); in assay [19], > 100 µM (inactive); in [14], > 100 µM (inactive); in assay [15], > 100 µM (inactive); in assay [16] it was 9.25 µM (inactive).
Take `C=C1C(=O)O[C@H]2[C@H]1[C@@H](OC(=O)C=C(C)C)CC1=C[C@@H](C[C@@]3(C)O[C@@H]23)OC1=O`: the GI50 in assay [1] was 0.859 µM (active); in assay [2] it was 1.61 µM (inactive); in assay [3], 3.05 µM (inactive); in assay [6], 2.27 µM (inactive); in assay [18], 3.08 µM (inactive); in [7], 3.13 µM (inactive). In addition, the GI50 in [10] is 2.24 µM (inactive); in [12] it was 9.1 µM (inactive); in assay [13] it was 20.9 µM (inactive); in [19] it was 22.3 µM (inactive); in [14] it was 1.43 µM (inactive); in assay [15], 16.3 µM (inactive). In [16], the GI50 is 2.05 µM (inactive).
Consider `C=CCc1cccc(/C=N\N/C(N)=N/O)c1O`, for which the GI50 was 2.07 µM (inactive) in [1]; 2.28 µM (inactive) in assay [17]; 3.05 µM (inactive) in assay [2]; 5.09 µM (inactive) in [3]; 3.3 µM (inactive) in assay [4]; 3.98 µM (inactive) in [5]. Further, the GI50 in assay [6] was 3.29 µM (inactive); in [7] it was 3.22 µM (inactive); in assay [8], 3.89 µM (inactive); in [9], 3.03 µM (inactive); in [10] it was 2.64 µM (inactive); in assay [11], 11.9 µM (inactive). Further, the GI50 in [12] is 6.3 µM (inactive); in [13] it was 4.84 µM (inactive); in assay [19] it was 11.5 µM (inactive); in assay [14] it was 6.52 µM (inactive); in [15], 4.51 µM (inactive); in assay [16], 4.27 µM (inactive).

Values taken from ChEMBL document CHEMBL1201862, “PubChem BioAssay data set” (2004).
